Reference: PMC10216263, “Favorable Preclinical Pharmacological Profile of a Novel Antimalarial Pyrrolizidinylmethyl Derivative of 4-amino-7-chloroquinoline with Potent In Vitro and In Vivo Activities” (Biomolecules, 2023)
Like-named read-outs stand apart in the source and are kept apart here.

What was measured:
P. falciparum 3D7 (CQ-S) [1] = assay: In vitro antimalarial activity, [3H]-hypoxanthine incorporation (LSHTM); type: cell-based; conditions: Plasmodium falciparum, 3D7; 72 h, [3H]-hypoxanthine incorporation, mean of 3 experiments; read-out: P. falciparum IC50 nM, 3D7 (CQ-S)
CYP2C19 = CYP2C19 (Homo sapiens, UniProt P33261); assay: in vitro
P. falciparum K1 (CQ-R) = assay: In vitro combination study (isobologram, ∑FIC); type: cell-based
[2] = test system: Salmonella typhimurium TA98, TA100 and Escherichia coli WP2 uvrA; assay: Bacterial Reverse Mutation Assay, overall; conditions: with or without rat liver S9, up to 1000 per plate
Method: using the preincubation method (30 min, 37°C) with and without phenobarbital-5,6-benzoflavone induced
MG3 was dissolved in distilled water (H2O) at
the maximum concentration of 40 mg/mL and tested in a preliminary range-finding test in all strains of
metabolic activation to determine the toxicity of the compound.

P. falciparum 3D7 (CQ-S) [3] = assay: In vitro combination study (isobologram, ∑FIC); type: cell-based
hERG K+ channel = hERG K+ channel (Homo sapiens, UniProt Q12809); assay: [3H]-astemizole binding assay in HEK293 cell membranes
Method: Methods for hERG interaction
Membranes were prepared from HEK293 cells stably transfected with the human ERG (ether-a-go-go related
gene; U04270) from Cytomix.
was used as radioligand. Non-specific binding was evaluated in the presence of an excess of 10 µM cold
The concentration-response curve was performed in a range from 0.03 to 30 µM (seven

[4] = test system: P. falciparum TM90C2A (CQ-R); assay: In vitro antimalarial activity, [3H]-hypoxanthine incorporation (LSHTM); type: cell-based; conditions: Plasmodium falciparum, 72 h, [3H]-hypoxanthine incorporation, mean of 3 experiments, read-out: P. falciparum IC50 nM, TM90C2A (CQ-R)
[5] = test system: P. falciparum field isolates; assay: Chemosensitivity assay on field isolates; type: cell-based
Method: (§1) The 10 P. vivax and 10 P. falciparum isolates used in this study were obtained from Mae Sod District, Tak Province, Thailand. […] Isolates were collected in 5 mL lithium-heparinized tubes and sent to the laboratory within 5–6 h.

P. vivax field isolates = assay: Chemosensitivity assay on field isolates; type: cell-based
Method: as §1

[6] = Blood to plasma partitioning; type: in vitro ADME; conditions: male, whole blood, human blood, up to 30 min
Method: Plasma protein binding was performed via ultrafiltration (30,000 D cutoff, Amicon, Merck) with heparinized blood samples (male SD rats, Charles River Italy, and male Beagle dogs, Marshall Farms, Europe, Lyon, France) and fresh and frozen heparinized human blood samples collected from fasted healthy male subjects (at least two subjects for plasma samples), were supplied by AAI, Germany. MG3 final concentrations of 100, 300 and 1000 ng/mL were prepared using a 10 mg/mL stock solution while control samples at the same concentrations diluted in DPBS buffer (Dulbecco’s Phosphate Buffered Saline, Sigma-Aldrich) to evaluate the recovery. […] The percentage of bound drug (% Fbound) and of unbound drug (% Ffree) was determined using the following equations: % Fbound = [(Conc. Total–Conc. Free)/Conc. […] Total is the compound concentration determined in plasma and Conc. Free is the compound concentration determined in the ultrafiltrated samples. Results were expressed as % of binding and % of free fraction (single values and mean ± SD). […] Blood to plasma ratio was calculated as: Conc. in blood/Conc. in plasma; where, Conc. is the compound concentration determined in blood and in plasma at the same time of incubation.

[7] = 7-day oral dose range finding (DRF) and systemic exposure in rats; type: in vivo, Sprague Dawley rats
Method: Seven days oral DRF in rats and dog, and five days oral DRF in Non-Human Primates (NHP) were performed using Sprague Dawley rats (n = 3/time point) of both sexes, one male and one female dog Beagle (Marshall/Green Hill) and one male and one female monkeys/Cynomolgus (Noveprim Ltd., Mahebourg Mauritius,). MG3 was administered as oral suspension in 0.5% methocel in water (400 cP viscosity) at the following doses: 30, 60 and 120 mg/kg/day for 7 days (rat), 15 and 30 mg/kg/days for 7 days (dog) and 25, 50 and 75 mg/kg/day (NHP). No Observed Effects Levels (NOEL) were determined. Mortality, behavior, and general conditions were observed daily. Body weight was recorded pre-test, and on Days 1, 4 and 7. Food consumption was recorded from Days 1 to 4 and 4 to 7. Hematological and clinical chemistry examinations were performed on Day 8. All animals were sacrificed under anesthesia at the end of the treatment period on Day 8 of study. Post-mortem examinations included necropsy, collection, and histological examination performed of selected organs/tissues.
Systemic exposure was measured in three additional rats/sex/group at different time-points up to 24 and 48 h after the treatment and on Days 1 and 7, respectively.

[8] = male, Sprague Dawley, rat, in vivo, po, 30 mg/kg/day

Sequence of CYP2C19 (P33261 whole entry): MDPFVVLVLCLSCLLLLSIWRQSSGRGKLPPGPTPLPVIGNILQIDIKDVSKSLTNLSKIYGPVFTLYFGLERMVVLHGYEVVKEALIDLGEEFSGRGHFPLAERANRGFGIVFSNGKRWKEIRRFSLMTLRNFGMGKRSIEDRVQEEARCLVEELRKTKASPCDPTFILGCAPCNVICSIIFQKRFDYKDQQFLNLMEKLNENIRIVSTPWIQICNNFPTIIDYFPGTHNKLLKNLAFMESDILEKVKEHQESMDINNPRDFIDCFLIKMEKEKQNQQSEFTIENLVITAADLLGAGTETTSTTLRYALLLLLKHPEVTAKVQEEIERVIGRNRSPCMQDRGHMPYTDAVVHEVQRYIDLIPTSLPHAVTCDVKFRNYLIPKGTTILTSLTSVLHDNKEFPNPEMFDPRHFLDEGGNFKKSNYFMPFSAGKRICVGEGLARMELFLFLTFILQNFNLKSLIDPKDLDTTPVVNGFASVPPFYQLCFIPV
Sequence of hERG K+ channel (Q12809 whole entry): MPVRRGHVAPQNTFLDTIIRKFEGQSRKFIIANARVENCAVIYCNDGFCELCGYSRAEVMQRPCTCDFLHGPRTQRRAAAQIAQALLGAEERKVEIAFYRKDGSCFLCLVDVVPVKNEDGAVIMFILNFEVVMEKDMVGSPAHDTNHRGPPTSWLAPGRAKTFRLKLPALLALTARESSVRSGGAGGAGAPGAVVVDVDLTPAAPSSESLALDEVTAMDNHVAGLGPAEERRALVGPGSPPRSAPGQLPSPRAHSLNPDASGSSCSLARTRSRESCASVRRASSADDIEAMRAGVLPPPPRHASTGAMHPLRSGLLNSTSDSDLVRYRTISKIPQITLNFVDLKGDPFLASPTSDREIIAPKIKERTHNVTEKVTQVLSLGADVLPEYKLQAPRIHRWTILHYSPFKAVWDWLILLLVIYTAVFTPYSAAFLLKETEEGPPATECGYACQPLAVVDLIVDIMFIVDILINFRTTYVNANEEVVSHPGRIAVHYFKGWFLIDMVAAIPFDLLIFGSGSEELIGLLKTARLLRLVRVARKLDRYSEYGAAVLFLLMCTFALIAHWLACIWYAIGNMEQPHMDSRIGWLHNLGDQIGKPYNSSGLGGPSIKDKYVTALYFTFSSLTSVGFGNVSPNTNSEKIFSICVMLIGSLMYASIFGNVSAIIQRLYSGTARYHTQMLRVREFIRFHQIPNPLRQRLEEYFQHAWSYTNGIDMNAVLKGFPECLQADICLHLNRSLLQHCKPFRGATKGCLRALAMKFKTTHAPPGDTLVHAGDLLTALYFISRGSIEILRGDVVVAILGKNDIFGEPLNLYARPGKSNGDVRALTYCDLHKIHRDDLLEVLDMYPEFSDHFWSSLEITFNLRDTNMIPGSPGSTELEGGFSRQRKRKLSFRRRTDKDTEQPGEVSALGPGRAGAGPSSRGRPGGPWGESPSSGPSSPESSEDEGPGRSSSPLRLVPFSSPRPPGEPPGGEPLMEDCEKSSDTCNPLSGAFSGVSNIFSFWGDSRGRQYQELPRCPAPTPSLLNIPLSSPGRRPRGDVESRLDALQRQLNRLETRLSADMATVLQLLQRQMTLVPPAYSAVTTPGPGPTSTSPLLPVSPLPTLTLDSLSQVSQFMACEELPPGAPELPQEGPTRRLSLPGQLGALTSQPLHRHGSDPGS

With `Clc1ccc2c(NCC34CCCN3CCC4)ccnc2c1` [MG3, 7-Chloro-N-((hexahydro-1H-pyrrolizin-7a-yl)methyl)quinolin-4-amine] the IC50 (P. falciparum 3D7 (CQ-S) [1]) was 12.6 nM, the inhibition at 3 µM (CYP2C19) was under 3% and the “Mean ∑FIC50 (95% CI)” value (P. falciparum K1 (CQ-R); in combination with ASN, K1, IC50 level) was 1.25 (0.94 – 1.56). For the same molecule, the “Mean ∑FIC50 (95% CI)” value (P. falciparum K1 (CQ-R); in combination with DHA, K1, IC50 level) was 1.25 (1.21 – 1.29), the “Mean ∑FIC50 (95% CI)” value (P. falciparum K1 (CQ-R); in combination with RKA-182, K1, IC50 level) was 1.24 (0.85 – 1.63) and the “interaction (isobologram)” value (P. falciparum K1 (CQ-R); in combination with azitromycin, K1 (CQ-R)) was “additive”. For the same molecule, the mutagenicity judgement [2] was “non-mutagenic”, the “Mean ∑FIC50 (95% CI)” value (P. falciparum 3D7 (CQ-S) [3]; in combination with ASN, 3D7, IC50 level) was 1.43 (1.30 – 1.55) and the “Mean ∑FIC50 (95% CI)” value (P. falciparum 3D7 (CQ-S) [3]; in combination with DHA, 3D7, IC50 level) was 1.49 (1.33 – 1.65). The “Mean ∑FIC50 (95% CI)” value (P. falciparum 3D7 (CQ-S) [3]; in combination with RKA-182, 3D7, IC50 level) was 1.45 (1.17 – 1.73), the “interaction (isobologram)” value (P. falciparum 3D7 (CQ-S) [3]; in combination with azitromycin, 3D7 (CQ-S)) was “additive” and the Ki (hERG K+ channel) was 553 ± 45 nM. For the same molecule, the IC50 [4] was 14.4 nM, the IC50 ([5]; Plasmodium falciparum, read-out: P. falciparum IC50 nM, Field Isolates, mean of 10 field isolates, Thai Burmese Border) was under 15 nM and the IC50 ([5]; read-out: P. falciparum IC50 nM, Field Isolates, mean of 10 field isolates, Thai Burmese Border) was 20.9 nM. For the same molecule, the “IC50 lower than that of CQ” value (P. vivax field isolates; P. vivax isolates) was 40%, the IC50 (P. vivax field isolates; Plasmodium vivax, read-out: P. vivax IC50 nM, Field Isolates) was 50.3 nM and the blood plasma ratio at 300 ng/mL [6] was about 1. The mortality ([7]; 30, 60, and 120 mg/kg/day oral, 7 days) was “no mortality occurred”, the MTD at 7 days ([7]; both sexes, Sprague Dawley, rat, in vivo, oral, 7 days, rats, read-out: maximum tolerated dose (MTD)) was 120 mg/kg/day and the AUC(0-t) ([7]; female, Sprague Dawley, rat, in vivo, po, 30 mg/kg/day, AUC0–24) was 2560 ± 650 ng·h/mL. The AUC(0-t) ([7]; female, Sprague Dawley, rat, in vivo, po, 30 mg/kg/day, AUC0–48) was 3800 ± 1000 ng·h/mL, the Cmax ([7]; female, Sprague Dawley, rat, in vivo, po, 30 mg/kg/day) was 149 ± 34 ng/mL and the AUC(0-t) ([7]; female, Sprague Dawley, rat, in vivo, po, 60 mg/kg/day, AUC0–24) was 8630 ± 870 ng·h/mL. It also gave an AUC(0-t) ([7]; female, Sprague Dawley, rat, in vivo, po, 60 mg/kg/day, AUC0–48) of 15000 ± 900 ng·h/mL, a Cmax ([7]; female, Sprague Dawley, rat, in vivo, po, 60 mg/kg/day) of 646 ± 201 ng/mL and an AUC(0-t) ([7]; female, Sprague Dawley, rat, in vivo, po, 120 mg/kg/day, AUC0–24) of 19400 ± 7500 ng·h/mL. It also gave an AUC(0-t) ([7]; female, Sprague Dawley, rat, in vivo, po, 120 mg/kg/day, AUC0–48) of 29800 ± 9600 ng·h/mL, a Cmax ([7]; female, Sprague Dawley, rat, in vivo, po, 120 mg/kg/day) of 1570 ± 270 ng/mL and an AUC(0-t) ([7]; female, Sprague-Dawley, rat, in vivo, po, 30 mg/kg/day, AUC0–24) of 2530 ± 500 ng·h/mL. For the same molecule, the AUC(0-t) ([7]; female, Sprague-Dawley, rat, in vivo, po, 60 mg/kg/day, AUC0–24) was 4740 ± 770 ng·h/mL, the Cmax ([7]; female, Sprague-Dawley, rat, in vivo, po, 60 mg/kg/day) was 259 ± 46 ng/mL and the AUC(0-t) ([7]; female, Sprague-Dawley, rat, in vivo, po, 120 mg/kg/day, AUC0–24) was 5210 ± 1600 ng·h/mL. For the same molecule, the Cmax ([7]; female, Sprague-Dawley, rat, in vivo, po, 120 mg/kg/day) was 411 ± 288 ng/mL, the “AUC0–24” value [7, 8] was 1880 ± 190 ng·h/mL and the AUC(0-t) ([7]; male, Sprague Dawley, rat, in vivo, po, 30 mg/kg/day, AUC0–24) was 1880 ± 380 ng·h/mL. For the same molecule, the AUC(0-t) ([7]; male, Sprague Dawley, rat, in vivo, po, 30 mg/kg/day, AUC0–48) was 2460 ± 550 ng·h/mL, the Cmax [7, 8] was 140 ± 30 ng/mL and the AUC(0-t) ([7]; male, Sprague Dawley, rat, in vivo, po, 60 mg/kg/day, AUC0–24) was 5090 ± 450 ng·h/mL. The AUC(0-t) ([7]; male, Sprague Dawley, rat, in vivo, po, 60 mg/kg/day, AUC0–48) was 7330 ± 310 ng·h/mL, the Cmax ([7]; male, Sprague Dawley, rat, in vivo, po, 60 mg/kg/day) was 321 ± 50 ng/mL and the AUC(0-t) ([7]; male, Sprague Dawley, rat, in vivo, po, 120 mg/kg/day, AUC0–24) was 17400 ± 3200 ng·h/mL. The AUC(0-t) ([7]; male, Sprague Dawley, rat, in vivo, po, 120 mg/kg/day, AUC0–48) was 27500 ± 3900 ng·h/mL, the Cmax ([7]; male, Sprague Dawley, rat, in vivo, po, 120 mg/kg/day) was 1090 ± 260 ng/mL and the AUC(0-t) ([7]; male, Sprague-Dawley, rat, in vivo, po, 60 mg/kg/day, AUC0–24) was 3530 ± 180 ng·h/mL. For the same molecule, the Cmax ([7]; male, Sprague-Dawley, rat, in vivo, po, 60 mg/kg/day) was 220 ± 10 ng/mL, the AUC(0-t) ([7]; male, Sprague-Dawley, rat, in vivo, po, 120 mg/kg/day, AUC0–24) was 3840 ± 700 ng·h/mL and the Cmax ([7]; male, Sprague-Dawley, rat, in vivo, po, 120 mg/kg/day) was 209 ± 49 ng/mL. The food consumption ([7]; rat, in vivo) was “Minimal to moderate decrease in food consumption”, the “clinical chemistry on Day 8” value ([7]; rat, in vivo, 120 mg/kg/day) was “slight to moderate increase in ALT and AST” and the “systemic exposure in females higher than in males” value ([7]; rat, in vivo, po) was “about two-fold”. The “mortality and liver toxicity” value ([7]; up to 60 mg/kg, 7-day oral toxicity study) was “no mortality and no clinical evidence of liver toxicity”.
